In paper PMC10376691, “Inhibition of Acetylcholinesterase and Amyloid-β Aggregation by Piceatannol and Analogs: Assessing In Vitro and In Vivo Impact on a Murine Model of Scopolamine-Induced Memory Impairment” (Antioxidants, 2023):
Entries after “also recorded” stand apart in the source; their conditions may differ.

Tests used:
[1] = tested on: scopolamine-induced amnesiac ICR mice; assay: Passive avoidance test in scopolamine-induced amnesiac ICR mice; format: in vivo, mouse; conditions: PIC 50 mg/kg oral once a day, donepezil 5 mg/kg oral, scopolamine 1 mg/kg i.p.
Source text: The scopolamine-induced cognitive dysfunctions of amnesiac ICR mice were used to evaluate the effects of PIC pre-treatments on the improvement of learning and memory functions, following previous reports. The animal experimental protocols were reviewed and approved by the Institutional Animal Care and Use Committee, Taipei Medical University (No. LAC-2021-0488). After a two-week acclimation, the mice were randomly divided into four groups (N = 5 for each group). In the first stage, the mice in the PIC group were orally pre-treated with PIC (50 mg/kg) using a feeding tube, once a day from day 1 to day 7; the mice in the blank, control, and donepezil groups were treated with the same volume of distilled water from day 1 to day 7. In the second stage, on day 8 and day 9, the mice in the PIC group and the donepezil group were orally treated once with PIC (50 mg/kg) and donepezil (positive control, 5 mg/kg), respectively, using a feeding tube; the mice in the blank and the control groups were treated with the same volume of distilled water. After 30 min, each mouse was injected intraperitoneally with scopolamine (1 mg/kg, dissolved in PBS), and the mice in the blank group were each injected with an equal volume of PBS instead of the scopolamine solution. Again, 30 min after the scopolamine or PBS injection, a learning and memory evaluation was performed on each mouse with the use of a 2-day passive avoidance test. All the mice were sacrificed at the end of the animal experiments, and the brain tissues of the mice in each group were isolated, weighted, and stored at −80 °C for further use.
A 2-day passive avoidance test, which included an acquisition trial on the first day and a retention trial on the second day, was used to evaluate the learning and memory functions of the scopolamine-induced cognitive dysfunctions of amnesiac ICR mice after PIC and donepezil treatments, following previous reports. A shuttle chamber (AccuScan Instruments Inc., Columbus, OH, USA) with a light box and a dark box separated by a sliding door was used. On day 8, after acclimation around the shuttle chamber for 30 min, each scopolamine-injected or PBS-injected mouse was placed in the light box for the acquisition trial. Once the mouse entered the dark box, the step-through latency (s) was recorded, and the sliding door was closed at the same time. Immediately after, the mouse was administered an electric foot shock (0.3 mA for 3 s) via the wired metal floor and then sent back to the cage. […] The step-through latency (period of time that each mouse stayed in the light box) was recorded again. […] The protein content of the whole brain extracts from the mice was quantified using the BCA protein kit, with bovine serum albumin as the standard protein. […]

[2] = after oral RSV 75 mg/kg, athymic nude mice; cited from earlier work

Oc1cc(O)cc(C=Cc2ccc(O)c(O)c2)c1 [PIC, 3,5,3′,4′-tetrahydroxystilbene]
step-through latency, acquisition trial (first day) [1]: no significant difference among the groups | step-through latency, retention trial (second day) ([1]; vs control p < 0.05): improved learning behavior; also recorded: longer staying time | PIC detected in the liver [2]: 11.50 nmol/g | PIC detected in the plasma [2]: 5.25 µmol/L | PIC detected in the skin [2]: 2.4 nmol/g
